Results as given in patent US11166460B2, “α-amino acrylate microbicide, and preparation method therefor and uses thereof” (priority 2017, dated 2021).
Values after ≈ are worked out from the molar mass of the structure shown. Read-outs that look alike come from different tables or passages of the source.

Assays:
[1] = tested on: tobacco mosaic virus (TMV); assay: Anti-TMV inactivation activity (inactivation mode), compound mixed with TMV before inoculation of tobacco leaves; type: in vivo; details: Tobacco mosaic virus, read-out: Anti-TMV activity, Inactivation effect (inhibition)
Pellicularia sasakii = assay: Fungicidal activity, fungi growth rate method, PS; type: cell-based; details: 50 μg/mL
Alternaria solani = assay: Fungicidal activity, fungi growth rate method, AS; type: cell-based; details: Alternaria solani, 50 μg/mL
Sclerotinia sclerotiorum = assay: microbe, parasite or virus in culture; type: cell-based; details: Sclerotinia sclerotiorum; for EC90: read-out: EC90 against S. sclerotiorum in vitro; for inhibition at 50 µg/mL: 50 μg/mL
Cercospora arachidicola = assay: Fungicidal activity, fungi growth rate method, CA; type: cell-based; details: Mycosphaerella arachidis, 50 μg/mL
Botrytis cinerea = assay: Fungicidal activity, fungi growth rate method, BC; type: cell-based; details: Botrytis cinerea, 50 μg/mL
[2] = tested on: tobacco mosaic virus (TMV); assay: Anti-TMV curative activity (treatment mode), live friction inoculation on tobacco seedlings; type: in vivo; details: Tobacco mosaic virus, read-out: Anti-TMV activity, Curative effect (inhibition), 100 μg/mL, tobacco seedlings, checked on seventh day
[3] = tested on: tobacco mosaic virus (TMV); assay: Anti-TMV inducing activity (induction mode), tobacco seedlings; type: in vivo; details: Tobacco mosaic virus, read-out: Anti-TMV activity, Induction effect (inhibition), 100 μg/mL, tobacco seedlings
Physalospora piricola = assay: Fungicidal activity, fungi growth rate method, PP; type: cell-based; details: 50 μg/mL
Rhizoctonia cerealis = assay: Fungicidal activity, fungi growth rate method, RC; type: cell-based; details: Ceratobasidium cereale, 50 μg/mL
[4] = tested on: Phytophthora infestans (Mont) de Bary; assay: microbe, parasite or virus in culture; type: cell-based; details: Phytophthora infestans
wheat Gibberella zeae = assay: microbe, parasite or virus in culture; type: cell-based; details: Fusarium graminearum
[5] = tested on: tobacco mosaic virus (TMV); assay: Anti-TMV protective activity (protection mode), live friction inoculation on tobacco seedlings; type: in vivo; details: Tobacco mosaic virus, read-out: Anti-TMV activity, Protection effect (inhibition)
[6] = read-out: Fungicidal activity (inhibition) against PS: Pellicularia sasakii
[7] = read-out: Fungicidal activity, inhibition, PS
[8] = read-out: Fungicidal activity (inhibition) against AS: Alternaria solani
[9] = read-out: Fungicidal activity, inhibition, AS
[10] = read-out: Fungicidal activity, inhibition, SS
[11] = read-out: Fungicidal activity (inhibition) against CA: Cercospora arachidicola
[12] = read-out: Fungicidal activity, inhibition, CA
[13] = read-out: Fungicidal activity, inhibition, BC
[14] = read-out: Fungicidal activity (inhibition) against PP: Physalospora piricola
[15] = read-out: Fungicidal activity, inhibition, PP
[16] = read-out: Fungicidal activity (inhibition) against RC: Rhizoctonia cerealis
[17] = read-out: Fungicidal activity, inhibition, RC
[18] = read-out: Fungicidal activity (inhibition) against PI: Phytophthora infestans (Mont) de Bary
[19] = read-out: Fungicidal activity, inhibition, PI
[20] = read-out: Fungicidal activity, inhibition, GZ
[21] = read-out: Fungicidal activity (inhibition) against SS: Sclerotinia sclerotiorum

| SMILES | inhibition at 100 µg/mL [1] [%] | inhibition at 50 µg/mL (Pellicularia sasakii; [7]) [%] | inhibition at 50 µg/mL (Alternaria solani; [9]) [%] | inhibition at 50 µg/mL (Sclerotinia sclerotiorum; [10]) [%] | inhibition at 50 µg/mL (Cercospora arachidicola; [12]) [%] | melting point [°C] | inhibition at 50 µg/mL (Botrytis cinerea; [13]) [%] | inhibition at 100 µg/mL [2] [%] | inhibition at 100 µg/mL [3] [%] | inhibition at 50 µg/mL (Physalospora piricola; [15]) [%] | inhibition at 50 µg/mL (Rhizoctonia cerealis; [16]) [%] | inhibition at 50 µg/mL (Rhizoctonia cerealis; [17]) [%] | inhibition at 50 µg/mL [4, 18] [%] | inhibition at 50 µg/mL [4, 19] [%] | inhibition at 50 µg/mL (wheat Gibberella zeae; [20]) [%] | inhibition at 100 µg/mL [5] [%] | also measured |
| --- | --- | --- | --- | --- | --- | --- | --- | --- | --- | --- | --- | --- | --- | --- | --- | --- | --- |
| CONC(=O)/C(=C/c1csc(C2CCN(C(=O)OC(C)(C)C)CC2)n1)NC(=O)c1ccccc1 [Compound 42, (Z)-N-[1-[(methoxylamino)carbonyl]-2-[4-[2-[4-(1-Boc-piperidine)]thiazol]]ethenyl]benzamide] | 0 | 43 | 63 | 93 | 44 | 111 to 113 | 53 | 0 | 20 | 44 | 45 | 45 | 44 | 44 | 42 | 41 | inhibition at 50 µg/mL (Pellicularia sasakii; [6]): 43%; inhibition at 50 µg/mL (Alternaria solani; [8]): 63%; EC90 (Sclerotinia sclerotiorum): 155 µg/mL (≈ 318 µM); inhibition at 50 µg/mL (Cercospora arachidicola; [11]): 44%; inhibition at 50 µg/mL (Botrytis cinerea; read-out: Fungicidal activity (inhibition) against BC: Botrytis cinerea): 53%; inhibition at 50 µg/mL (Physalospora piricola; [14]): 44% |
| CC(C)(C)OC(=O)N1CCC(c2nc(/C=C(\NC(=O)c3ccccc3)C(=O)NCC(F)F)cs2)CC1 [Compound 43, (Z)-N-[1-[(2,2-difluoroethylamino)carbonyl]-2-[4-[2-[4-(1-Boc-piperidine)]thiazol]]ethenyl]benzamide] | 27 | 39 | 43 | 96 | 32 | 164 to 165 | 40 | 30 | 31 | 40 | 38 | 38 | 38 | 38 | 36 | 2 | EC90 (Sclerotinia sclerotiorum): 154 µg/mL (≈ 295 µM) |
| O=C(N/C(=C\c1ccccc1)C(=O)N1CCC(O)CC1)c1ccccc1 [Compound 45, (Z)-N-[1-[(4-hydroxy-1-piperidinyl)carbonyl]-2-phenylethenyl]benzamide] | 22 | 3 | 25 | 38 | 6 | 115 to 117 | 12 | 30 | 52 | 6 | < 20 | 13 | < 25 | 24 | 43 | 54 | inhibition at 50 µg/mL (Pellicularia sasakii; [6]): < 30%; inhibition at 50 µg/mL (Alternaria solani; [8]): < 30%; inhibition at 50 µg/mL (Sclerotinia sclerotiorum; [21]): 38%; inhibition at 50 µg/mL (Cercospora arachidicola; [11]): < 25%; inhibition at 50 µg/mL (Physalospora piricola; [14]): < 20%; inhibition at 50 µg/mL (wheat Gibberella zeae; read-out: Fungicidal activity (inhibition) against GZ: wheat Gibberella zeae): < 45% |
| O=C(NCc1ccc(Br)cc1)/C(=C/c1ccccc1)NC(=O)c1ccccc1 [Compound 46, N-[(1Z)-2-phenyl-1-[[(4-bromophenylmethyl)amino]carbonyl]ethenyl]benzamide] | 64 | 2 | 7 | 34 | 18 | 192 to 194 | 9 | 33 | 44 | 12 | – | 13 | – | 11 | 43 | 41 | – |
| CC(C)(C)OC(=O)N1CCC(c2nc(/C=C(\NC(=O)c3ccccc3)C(=O)NCc3ccc(Br)cc3)cs2)CC1 [Compound 47, N-[(1Z)-2-[4-[2-[4-(1-Boc-piperidine)]thiazol]]-1-[[(4-bromophenylmethyl)amino]carbonyl]ethenyl]benzamide] | 0 | 19 | 36 | 82 | 22 | 101 to 103 | 32 | 56 | 53 | 22 | – | 21 | – | 20 | 22 | 41 | inhibition at 50 µg/mL (Sclerotinia sclerotiorum; [21]): 80 to 95% |
| O=C(NC(Cc1ccccc1)C(=O)N1CCC(c2ccccc2)CC1)c1ccccc1 (stereo not drawn) [Compound 48, N-[1-[[4-(4-phenyl)-1-piperidinyl]carbonyl]-2-phenylethyl]benzamide] | 32 | 17 | 18 | 64 | 9 | 143 to 144 | 17 | 25 | 27 | 14 | – | 11 | – | 23 | 11 | 2 | – |
| O=C(NC(Cc1ccccc1)C(=O)N1CCC(O)(c2ccc(Br)cc2)CC1)C1CC1 (stereo not drawn) [Compound 49, N-[1-[[4-(4-bromophenyl)-4-hydroxy-1-piperidinyl]carbonyl]-2-phenylethyl]cyclopropanecarboxamide] | 31 | 14 | 28 | 50 | 12 | 101 to 103 | 15 | 29 | 21 | 6 | – | 18 | – | 11 | 43 | 41 | – |
| O=C(NC(Cc1ccccc1)C(=O)N1CCC(O)(c2ccc(Br)cc2)CC1)C1CCCCC1 (stereo not drawn) [Compound 50, N-[1-[[4-(4-bromophenyl)-4-hydroxy-1-piperidinyl]carbonyl]-2-phenylethyl]cyclohexanecarboxamide] | 34 | 20 | 29 | 50 | 26 | 200 to 202 | 29 | 37 | 34 | 18 | – | 23 | – | 26 | 29 | 47 | – |
